# Laboratory results from patent US20250143299A1, “METHODS AND COMPOSITIONS FOR CONTROLLING PESTS IN VEGETABLES” (Globachem NV, priority 2022, published 2025).
# Columns and labels:
# Format in all cases: in vivo
# Spodoptera exigua = test: Example 1 tomato plot trial, Spodoptera exigua (beet armyworm) control; details: appl. A, 15 DAA
# Method: Tomato—Spodoptera exigua (Beet Armyworm)
# Trial conducted in 4 replicates on plots of 10 plants each. Application A was made at the occurrence of the insects.
# The statistical design of this study was a completely randomized blocks design including 4 replicates. The homogeneity of variance was tested for all treatments and assessment dates by means of the Bartlett's test. In order to study the effect of the applied treatments for each assessment data, means were compared using Student-Newman-Keuls (p=0.05).
# Tuta absoluta = test: Example 2 tomato trial, Tuta absoluta (tomato leafminer) control; details: appl. AB
# Method: Tomato—Tuta absoluta (Tomato Leafminer)
# Trial conducted in 4 replicates on plots of 25 plants each. Application was made at the occurrence of the insects.
# Insects present at the time of application: at App A 0.3/plot, at App B in untreated: 34/plot
# Efficacy is assessed by checking on the leaves the % of damage caused by the insects.
# Aphis fabae = test: Example 5 pea trial, Aphis fabae (black bean aphid) control; details: appl. AB
# Method: Peas—Aphis fabae (Black bean aphid)
# The trial was conducted on peas, variety Batuta, 4 replicates per plot. A water volume of 200 L water/ha was used for each application. Two applications were made, Application A was made at first infestation and Application B was made 14d later. Each plot at least 12 m^2.
# Insects present at the time of application: at App A 197/20 shoots, at App B in untreated: 443/20 shoots.
# Pea = test: Example 6 phytotoxicity, necrosis/burn (PHYNEC) on pea; set-up: scale not given here; details: appl. AB
# Excerpt: Trial conducted on peas, variety Navarro, 4 replicates per plot. Each plot was at least 12 m^2, a water volume of 200 L water per ha was used for the application.
# Insects present at the time of application A: 106 aphids per 20 shoots. The stage of the crop at application A was BBCH 75-77, and at application B, (14 DAA) BBCH 79-81.
# [1] = system: Leptinotarsa decemlineata; test: Example 8 Trial 1 potato, Leptinotarsa decemlineata (Colorado potato beetle) control; details: appl. AB, 8 DAB
# Excerpt: Potatoes—Leptinotarsa decemlineata (Colorado Potato Beetle)—LEPTNDE
# Trial 1: Potatoes, variety Lady Amarilla, 4 replicates per plot, each plot at least 25 m^2. A water volume of 200 L water/ha was used for each application. Two applications were made at a 14d interval.
# Application made at the occurrence of the insects. Application A was made at Stage BBCH 36, application B was made 14 days later at Stage BBCH 51.
# Insects present at the time of application: at App A 39/10 plants at App B in untreated: 35/10 plants.
# Halyomorpha halys = test: Example 13 egg trial, egg mass immersion bioassay on Halyomorpha halys; details: for % Live instars emerged: egg mass immersion
# Method: Halyomorpha halys were obtained from a lab strain that was mass reared for several generations from a field strain. Egg masses were provided at the same stage (2-3 days before hatching) in order to test same egg masses conditions.
# Bioassay, consisting in egg masses immersion, was carried out dipping the egg masses by means of lab forceps for two second inside three different PA product concentrations (100 ppm, 50 ppm and 33 ppm), one treatment with a commercial standard (Trebon up, a.i., Etofenprox) and a treatment with only water (untreated Check) were performed. 4 replicates were performed (1 egg mass is considered 1 replicate).
# Assessments were conducted at 1, 2, 4 days after application, egg mortality and larvae hatching from eggs were recorded, raw data were processed with ARM software. All the statistical procedures [Student-Newman-Keuls (SNK)], Anova and other calculation analysis were performed using the ARM 2020.0 software.
# [2] = Halyomorpha halys, read-out: % Egg mortality
smiles,measurement,setting,value
"CCCCCCCCC(=O)O [PA, pelargonic acid]","Damage severity (1-4), plant",Spodoptera exigua; 650 g/ha (1 L/ha),61.37 a % UNCK
same,Nr damaged leaves,Spodoptera exigua; 650 g/ha (1 L/ha),63.30 a % UNCK
same,Nr of larvae,Spodoptera exigua; 650 g/ha (1 L/ha),73.85 b % UNCK
same,"Damage severity (1-4), plant",Spodoptera exigua; 1300 g/ha (2 L/ha),61.01 a % UNCK
same,Nr damaged leaves,Spodoptera exigua; 1300 g/ha (2 L/ha),71.72 a % UNCK
same,Nr of larvae,Spodoptera exigua; 1300 g/ha (2 L/ha),79.47 b % UNCK
same,"Damage severity (1-4), plant",Spodoptera exigua; 2600 g/ha (4 L/ha),64.85 a % UNCK
same,Nr damaged leaves,Spodoptera exigua; 2600 g/ha (4 L/ha),63.54 a % UNCK
same,Nr of larvae,Spodoptera exigua; 2600 g/ha (4 L/ha),90.18 a % UNCK
same,# Damaged leaves,"Tuta absoluta; 1300 g/ha (2 L/ha), 3 DAA",47 % UNCK
same,# Damaged leaves,"Tuta absoluta; 1300 g/ha (2 L/ha), 3 DAB",31 % UNCK
same,# Damaged leaves,"Tuta absoluta; 1300 g/ha (2 L/ha), 7 DAA",68 % UNCK
same,# Damaged leaves,"Tuta absoluta; 1300 g/ha (2 L/ha), 7 DAB",32 % UNCK
same,# Damaged leaves,"Tuta absoluta; 1300 g/ha (2 L/ha), 14 DAA",70 % UNCK
same,# Damaged leaves,"Tuta absoluta; 1950 g/ha (3 L/ha), 3 DAA",51 % UNCK
same,# Damaged leaves,"Tuta absoluta; 1950 g/ha (3 L/ha), 3 DAB",42 % UNCK
same,# Damaged leaves,"Tuta absoluta; 1950 g/ha (3 L/ha), 7 DAA",69 % UNCK
same,# Damaged leaves,"Tuta absoluta; 1950 g/ha (3 L/ha), 7 DAB",46 % UNCK
same,# Damaged leaves,"Tuta absoluta; 1950 g/ha (3 L/ha), 14 DAA",72 % UNCK
same,# Damaged leaves,"Tuta absoluta; 2600 g/ha (4 L/ha), 3 DAA",58 % UNCK
same,# Damaged leaves,"Tuta absoluta; 2600 g/ha (4 L/ha), 3 DAB",47 % UNCK
same,# Damaged leaves,"Tuta absoluta; 2600 g/ha (4 L/ha), 7 DAA",74 % UNCK
same,# Damaged leaves,"Tuta absoluta; 2600 g/ha (4 L/ha), 7 DAB",42 % UNCK
same,# Damaged leaves,"Tuta absoluta; 2600 g/ha (4 L/ha), 14 DAA",78 % UNCK
same,# Damaged leaves,"Tuta absoluta; 5200 g/ha (8 L/ha), 3 DAA",59 % UNCK
same,# Damaged leaves,"Tuta absoluta; 5200 g/ha (8 L/ha), 3 DAB",42 % UNCK
same,# Damaged leaves,"Tuta absoluta; 5200 g/ha (8 L/ha), 7 DAA",75 % UNCK
same,# Damaged leaves,"Tuta absoluta; 5200 g/ha (8 L/ha), 7 DAB",49 % UNCK
same,# Damaged leaves,"Tuta absoluta; 5200 g/ha (8 L/ha), 14 DAA",75 % UNCK
same,"COUINS (count of insects), 20 shoots","Aphis fabae; 585 g/ha (0.9 L/ha), 3 DAA",7.66 % UNCK
same,"COUINS (count of insects), 20 shoots","Aphis fabae; 585 g/ha (0.9 L/ha), 3 DAB",32.43 % UNCK
same,"COUINS (count of insects), 20 shoots","Aphis fabae; 585 g/ha (0.9 L/ha), 7 DAA",17.73 % UNCK
same,"COUINS (count of insects), 20 shoots","Aphis fabae; 585 g/ha (0.9 L/ha), 7 DAB",33.74 % UNCK
same,"COUINS (count of insects), 20 shoots","Aphis fabae; 975 g/ha (1.5 L/ha), 3 DAA",9.21 % UNCK
same,"COUINS (count of insects), 20 shoots","Aphis fabae; 975 g/ha (1.5 L/ha), 3 DAB",39.08 % UNCK
same,"COUINS (count of insects), 20 shoots","Aphis fabae; 975 g/ha (1.5 L/ha), 7 DAA",22.27 % UNCK
same,"COUINS (count of insects), 20 shoots","Aphis fabae; 975 g/ha (1.5 L/ha), 7 DAB",51.21 % UNCK
same,"COUINS (count of insects), 20 shoots","Aphis fabae; 1300 g/ha (2.0 L/ha), 3 DAA",44.25 % UNCK
same,"COUINS (count of insects), 20 shoots","Aphis fabae; 1300 g/ha (2.0 L/ha), 3 DAB",65.79 % UNCK
same,"COUINS (count of insects), 20 shoots","Aphis fabae; 1300 g/ha (2.0 L/ha), 7 DAA",63.58 % UNCK
same,"COUINS (count of insects), 20 shoots","Aphis fabae; 1300 g/ha (2.0 L/ha), 7 DAB",65.14 % UNCK
same,"COUINS (count of insects), 20 shoots","Aphis fabae; 2600 g/ha (4.0 L/ha), 3 DAA",72.11 % UNCK
same,"COUINS (count of insects), 20 shoots","Aphis fabae; 2600 g/ha (4.0 L/ha), 3 DAB",76.77 % UNCK
same,"COUINS (count of insects), 20 shoots","Aphis fabae; 2600 g/ha (4.0 L/ha), 7 DAA",82.08 % UNCK
same,"COUINS (count of insects), 20 shoots","Aphis fabae; 2600 g/ha (4.0 L/ha), 7 DAB",76.67 % UNCK
same,Phytotoxicity - Necrosis/burn (PHYNEC),"Pea; 585 g/ha (0.9 L/ha), 7 DAA",0
same,Phytotoxicity - Necrosis/burn (PHYNEC),"Pea; 585 g/ha (0.9 L/ha), 14 DAA",0
same,Phytotoxicity - Necrosis/burn (PHYNEC),"Pea; 975 g/ha (1.5 L/ha), 7 DAA",0
same,Phytotoxicity - Necrosis/burn (PHYNEC),"Pea; 975 g/ha (1.5 L/ha), 14 DAA",0
same,Phytotoxicity - Necrosis/burn (PHYNEC),"Pea; 1300 g/ha (2.0 L/ha), 7 DAA",3
same,Phytotoxicity - Necrosis/burn (PHYNEC),"Pea; 1300 g/ha (2.0 L/ha), 14 DAA",3
same,Phytotoxicity - Necrosis/burn (PHYNEC),"Pea; 2600 g/ha (4.0 L/ha), 7 DAA",37.5
same,Phytotoxicity - Necrosis/burn (PHYNEC),"Pea; 2600 g/ha (4.0 L/ha), 14 DAA",37.5
same,COUINS # L1-L3/10 plants,[1]; 585 g/ha (0.9 L/ha),88.2 % UNCK
same,COUINS # L4/10 plants,[1]; 585 g/ha (0.9 L/ha),57.9 % UNCK
same,COUINS # L1-L3/10 plants,[1]; 975 g/ha (1.5 L/ha),17.6 % UNCK
same,COUINS # L4/10 plants,[1]; 975 g/ha (1.5 L/ha),57.9 % UNCK
same,COUINS # L1-L3/10 plants,[1]; 1300 g/ha (2.0 L/ha),82.4 % UNCK
same,COUINS # L4/10 plants,[1]; 1300 g/ha (2.0 L/ha),57.9 % UNCK
same,COUINS # L1-L3/10 plants,[1]; 2600 g/ha (4.0 L/ha),76.5 % UNCK
same,COUINS # L4/10 plants,[1]; 2600 g/ha (4.0 L/ha),68.4 % UNCK
same,mortality at 33 ppm,Halyomorpha halys; [2],17%
same,mortality at 50 ppm,Halyomorpha halys; [2],46%
same,mortality at 100 ppm,Halyomorpha halys; [2],65%
same,% Live instars emerged,Halyomorpha halys; 33 ppm ai (3.3 ml/l),47%
same,% Live instars emerged,Halyomorpha halys; 50 ppm ai (5 ml/l),18%
same,% Live instars emerged,Halyomorpha halys; 100 ppm ai (10 ml/l),5%
